Tests used:
[1] = target: T1, Bromodomain-containing protein 4 (Homo sapiens, UniProt O60885); assay: (§1) TR-FRET Assay: Compound dilution series were prepared in DMSO via an approximately 3-fold serial dilution. Compound dilutions were added directly into white, low-volume assay plates (Perkin Elmer Proxiplate 384 Plus#6008280) using a Labcyte Echo in conjunction with Labcyte Access and Thermo Multidrop CombinL robotics. Compounds were then suspended in eight microliters (μL) of assay buffer (20 mM Sodium Phosphate, pH 6.0, 50 mM NaCl, 1 mM Ethylenediaminetetraacetic acid disodium salt dihydrate, 0.01% Triton X-100, 1 mM DL-Dithiothreitol) containing His-tagged bromodomain, Europium-conjugated anti-His antibody (Invitrogen PV5596) and Alexa-647-conjugated probe.The final concentration of 1× assay mixture contained 2% DMSO, 12 nM His tagged BRD4 (BDI_K57-E168) and 100 nM probe or 4 nM His tagged BRD4 (BDII_E352-M457) and 30 nM probe, and 1 nM Europium-conjugated anti-His-tag antibody, and compound concentrations in the range of: 49.02 μM-0.61 nM or 0.98 μM-0.15 nM.After a one-hour equilibration at room temperature, TR-FRET ratios were determined using an Envision multilabel plate reader (Ex 340, […]).
[2] = target: T1, Bromodomain-containing protein 4; assay: as §1; remark: listed apart in the source

Ki [1] | Ki [2] | SMILES
0.0066 µM | 6.69 µM | Cc1cccc(C)c1Oc1ccc(C(C)(O)CC(C)C)cc1-c1cn(C)c(=O)c2[nH]c(C(=O)NC(C)(C)C)cc12 (centres undefined)
0.0074 µM | 1.77 µM | Cc1cc(F)cc(Cl)c1Oc1ccc(C(C)(C)O)cc1-c1cn(C)c(=O)c2[nH]c(C(=O)NC3(C)CC3(F)F)cc12 (centres undefined)

Source: ChEMBL document CHEMBL5727676, “Bromodomain inhibitors” (2020)
